Source: patent US6420362B1, “Azines containing the 5,6-di-hydro-(1,4,2) dioxazine-3-yl group and the use thereof as fungicides” (priority 1997, dated 2002)

Experiment: log P determination by HPLC (EEC Directive 79/831 Annex V. A8)
Type: physicochemical
Procedure: The log P values were determined in accordance with EEC Directive 79/831 Annex V. A8 by HPLC (gradient method, acetonitrile/0.1% strength aqueous phosphoric acid).

SMILES | chromatographic logP
CON=C(C1=NOCCO1)c1ccccc1C=NN=C(C)c1cccc(C(F)(F)F)c1 [Example 1, (5,6-dihydro-[1,4,2]dioxazin-3-yl)-(2-{[1-(3-trifluoromethylphenyl)-ethylidene]-hydrazonomethyl}-phenyl)-methanone O-methyl oxime] | 3.8
CON=C(C1=NOCCO1)c1ccccc1C=NN=C(C)c1ccc(C(F)(F)F)cc1 [Example 2, (5,6-dihydro-[1,4,2]dioxazin-3-yl)-(2-{[1-(4-trifluoromethylphenyl)-ethylidene]-hydrazonomethyl}-phenyl)-methanone O-methyl oxime] | 3.8
CON=C(C(C)=NN=Cc1ccccc1/C(=N/OC)C1=NOCCO1)C(C)C [Example 12] | 3.92

Further lines, results first:

chromatographic logP | SMILES
3.17 | CON=C(C)C(C)=NN=Cc1ccccc1C(=NOC)C1=NOCCO1 [Example 4, 3-({2-[(5,6-dihydro-[1,4,2]dioxazin-3-yl)-methoxyimino-methyl]-benzylidene}-hydrazono)-butan-2-one O-methyl oxime]
3.58 | CCC(=NOC)C(C)=NN=Cc1ccccc1/C(=N/OC)C1=NOCCO1 [Example 13]
3.61 | CCON=C(C)C(C)=NN=Cc1ccccc1C(=NOC)C1=NOCCO1 [Example 17]
